What was measured:
Format in all cases: binding
[1] = target: kinases (KINOMEscan panel) (Homo sapiens, UniProt P08581, Y1235D); conditions: kinase MET(Y1235D); NEW KINOMEscan
[2] = target: kinases (KINOMEscan panel) (Homo sapiens, UniProt P10721, V559D); conditions: kinase KIT(V559D); NEW KINOMEscan
[3] = target: kinases (KINOMEscan panel) (Homo sapiens, UniProt P10721, V559D/V654A); conditions: kinase KIT(V559D,V654A); NEW KINOMEscan
[4] = target: kinases (KINOMEscan panel) (Homo sapiens, UniProt P14616); conditions: INSRR; NEW KINOMEscan
Chain of kinases (KINOMEscan panel) (Homo sapiens, UniProt P14616) (P14616 27-1297): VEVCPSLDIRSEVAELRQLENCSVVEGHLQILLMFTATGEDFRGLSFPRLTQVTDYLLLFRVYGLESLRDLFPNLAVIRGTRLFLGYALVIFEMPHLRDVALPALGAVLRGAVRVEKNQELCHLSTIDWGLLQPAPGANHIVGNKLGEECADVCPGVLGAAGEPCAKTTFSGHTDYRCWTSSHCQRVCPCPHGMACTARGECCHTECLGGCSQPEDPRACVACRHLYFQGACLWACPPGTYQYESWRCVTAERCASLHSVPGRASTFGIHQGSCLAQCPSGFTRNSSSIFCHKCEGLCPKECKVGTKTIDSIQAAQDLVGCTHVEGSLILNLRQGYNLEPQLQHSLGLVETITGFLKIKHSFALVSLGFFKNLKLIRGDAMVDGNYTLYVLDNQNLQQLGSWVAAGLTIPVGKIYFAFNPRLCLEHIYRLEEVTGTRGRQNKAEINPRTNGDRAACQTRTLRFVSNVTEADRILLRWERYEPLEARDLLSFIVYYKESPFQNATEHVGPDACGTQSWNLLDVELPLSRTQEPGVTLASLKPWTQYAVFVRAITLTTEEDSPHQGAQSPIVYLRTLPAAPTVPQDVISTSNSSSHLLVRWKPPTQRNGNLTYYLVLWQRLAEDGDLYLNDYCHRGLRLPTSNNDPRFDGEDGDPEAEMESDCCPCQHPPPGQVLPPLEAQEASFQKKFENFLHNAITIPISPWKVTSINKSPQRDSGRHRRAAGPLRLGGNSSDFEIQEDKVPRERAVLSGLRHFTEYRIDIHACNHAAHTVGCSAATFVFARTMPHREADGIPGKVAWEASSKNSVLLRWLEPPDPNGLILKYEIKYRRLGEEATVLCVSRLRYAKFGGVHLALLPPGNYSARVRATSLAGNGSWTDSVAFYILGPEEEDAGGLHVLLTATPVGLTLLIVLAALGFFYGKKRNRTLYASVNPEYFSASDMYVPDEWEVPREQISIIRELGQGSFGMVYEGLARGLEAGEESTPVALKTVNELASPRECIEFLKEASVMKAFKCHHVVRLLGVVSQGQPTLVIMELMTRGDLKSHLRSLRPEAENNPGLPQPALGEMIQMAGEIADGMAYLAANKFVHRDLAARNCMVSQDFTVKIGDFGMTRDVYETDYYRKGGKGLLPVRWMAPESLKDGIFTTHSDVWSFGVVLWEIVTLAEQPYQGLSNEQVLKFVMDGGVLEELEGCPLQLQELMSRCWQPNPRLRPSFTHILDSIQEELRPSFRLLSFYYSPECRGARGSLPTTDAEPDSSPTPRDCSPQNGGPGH

[5] = target: kinases (KINOMEscan panel) (Homo sapiens, UniProt P41240); conditions: kinase CSK; NEW KINOMEscan
Chain of kinases (KINOMEscan panel) (Homo sapiens, UniProt P41240) (P41240 whole entry): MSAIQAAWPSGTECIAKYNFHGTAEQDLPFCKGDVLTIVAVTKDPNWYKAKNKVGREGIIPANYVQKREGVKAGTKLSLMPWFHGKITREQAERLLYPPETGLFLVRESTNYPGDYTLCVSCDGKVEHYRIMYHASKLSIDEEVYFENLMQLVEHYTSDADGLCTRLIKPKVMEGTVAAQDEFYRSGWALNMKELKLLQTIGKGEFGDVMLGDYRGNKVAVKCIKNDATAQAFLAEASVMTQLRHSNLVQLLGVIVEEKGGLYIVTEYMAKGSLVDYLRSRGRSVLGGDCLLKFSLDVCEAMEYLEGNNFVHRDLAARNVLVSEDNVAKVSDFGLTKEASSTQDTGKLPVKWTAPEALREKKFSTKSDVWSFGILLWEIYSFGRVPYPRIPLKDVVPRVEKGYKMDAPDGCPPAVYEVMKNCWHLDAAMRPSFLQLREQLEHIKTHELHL

[6] = target: T1, kinases (KINOMEscan panel) (Homo sapiens, UniProt Q13546); conditions: kinase RIPK1; NEW KINOMEscan
T1 sequence (Q13546 1-671): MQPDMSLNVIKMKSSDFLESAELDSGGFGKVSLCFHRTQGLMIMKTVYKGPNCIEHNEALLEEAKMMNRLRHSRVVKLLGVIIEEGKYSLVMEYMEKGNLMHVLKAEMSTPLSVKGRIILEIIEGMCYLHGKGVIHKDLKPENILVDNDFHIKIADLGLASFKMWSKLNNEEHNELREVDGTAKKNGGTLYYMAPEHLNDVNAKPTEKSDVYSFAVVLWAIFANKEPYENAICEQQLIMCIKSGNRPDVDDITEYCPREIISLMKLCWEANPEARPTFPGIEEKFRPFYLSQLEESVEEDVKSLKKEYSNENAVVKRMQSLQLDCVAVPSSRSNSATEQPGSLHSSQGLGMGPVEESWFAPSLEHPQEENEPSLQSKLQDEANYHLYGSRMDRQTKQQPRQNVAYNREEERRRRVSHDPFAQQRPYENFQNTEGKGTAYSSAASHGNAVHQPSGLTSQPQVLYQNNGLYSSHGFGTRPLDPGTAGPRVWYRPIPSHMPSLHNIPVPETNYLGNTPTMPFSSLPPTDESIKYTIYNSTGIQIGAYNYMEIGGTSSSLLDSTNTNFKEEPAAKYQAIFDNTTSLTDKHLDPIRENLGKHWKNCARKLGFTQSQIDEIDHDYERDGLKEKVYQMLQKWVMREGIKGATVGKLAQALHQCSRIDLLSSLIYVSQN

[7] = target: T2, kinases (KINOMEscan panel) (Homo sapiens, UniProt Q13873); conditions: kinase BMPR2; NEW KINOMEscan
T2 sequence (Q13873 27-1038): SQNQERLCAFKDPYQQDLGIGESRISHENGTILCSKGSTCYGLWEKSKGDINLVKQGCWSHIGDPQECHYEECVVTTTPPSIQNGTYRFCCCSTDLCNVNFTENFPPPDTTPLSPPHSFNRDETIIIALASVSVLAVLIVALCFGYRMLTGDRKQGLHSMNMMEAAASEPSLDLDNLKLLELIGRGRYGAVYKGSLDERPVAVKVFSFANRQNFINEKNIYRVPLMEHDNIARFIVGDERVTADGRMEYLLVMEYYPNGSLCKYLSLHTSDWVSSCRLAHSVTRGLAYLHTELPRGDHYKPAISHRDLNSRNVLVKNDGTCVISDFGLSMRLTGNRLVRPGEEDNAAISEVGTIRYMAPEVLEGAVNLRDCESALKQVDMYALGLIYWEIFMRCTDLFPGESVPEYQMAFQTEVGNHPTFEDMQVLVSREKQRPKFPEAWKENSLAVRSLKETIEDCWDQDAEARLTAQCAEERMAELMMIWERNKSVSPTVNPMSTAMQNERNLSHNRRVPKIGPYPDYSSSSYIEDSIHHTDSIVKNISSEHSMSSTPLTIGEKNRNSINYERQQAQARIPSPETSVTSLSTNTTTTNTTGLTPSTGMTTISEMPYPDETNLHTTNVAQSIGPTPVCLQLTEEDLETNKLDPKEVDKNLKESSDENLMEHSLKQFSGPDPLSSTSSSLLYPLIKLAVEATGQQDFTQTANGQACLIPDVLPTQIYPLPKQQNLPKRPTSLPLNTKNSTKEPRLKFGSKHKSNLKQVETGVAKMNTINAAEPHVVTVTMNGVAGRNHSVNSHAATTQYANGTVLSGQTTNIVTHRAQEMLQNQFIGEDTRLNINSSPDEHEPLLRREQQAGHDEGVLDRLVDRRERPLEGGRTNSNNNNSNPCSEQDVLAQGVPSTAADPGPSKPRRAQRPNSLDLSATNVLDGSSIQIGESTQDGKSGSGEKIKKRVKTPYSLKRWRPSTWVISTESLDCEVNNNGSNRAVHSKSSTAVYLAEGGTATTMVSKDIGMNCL

[8] = target: kinases (KINOMEscan panel) (Homo sapiens, UniProt Q8TDX7); conditions: NEK7; NEW KINOMEscan
Chain of kinases (KINOMEscan panel) (Homo sapiens, UniProt Q8TDX7) (Q8TDX7 whole entry): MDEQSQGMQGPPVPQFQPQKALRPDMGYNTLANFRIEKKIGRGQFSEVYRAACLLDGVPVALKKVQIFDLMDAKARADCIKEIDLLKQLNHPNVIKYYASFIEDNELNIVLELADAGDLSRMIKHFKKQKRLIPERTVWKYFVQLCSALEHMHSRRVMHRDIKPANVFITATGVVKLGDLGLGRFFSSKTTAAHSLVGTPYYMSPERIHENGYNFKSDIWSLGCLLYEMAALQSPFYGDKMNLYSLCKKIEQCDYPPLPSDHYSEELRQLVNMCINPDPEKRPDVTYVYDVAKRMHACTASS

Chain of kinases (KINOMEscan panel) (Homo sapiens, UniProt P10721, V559D) (P10721 26-976 V559D): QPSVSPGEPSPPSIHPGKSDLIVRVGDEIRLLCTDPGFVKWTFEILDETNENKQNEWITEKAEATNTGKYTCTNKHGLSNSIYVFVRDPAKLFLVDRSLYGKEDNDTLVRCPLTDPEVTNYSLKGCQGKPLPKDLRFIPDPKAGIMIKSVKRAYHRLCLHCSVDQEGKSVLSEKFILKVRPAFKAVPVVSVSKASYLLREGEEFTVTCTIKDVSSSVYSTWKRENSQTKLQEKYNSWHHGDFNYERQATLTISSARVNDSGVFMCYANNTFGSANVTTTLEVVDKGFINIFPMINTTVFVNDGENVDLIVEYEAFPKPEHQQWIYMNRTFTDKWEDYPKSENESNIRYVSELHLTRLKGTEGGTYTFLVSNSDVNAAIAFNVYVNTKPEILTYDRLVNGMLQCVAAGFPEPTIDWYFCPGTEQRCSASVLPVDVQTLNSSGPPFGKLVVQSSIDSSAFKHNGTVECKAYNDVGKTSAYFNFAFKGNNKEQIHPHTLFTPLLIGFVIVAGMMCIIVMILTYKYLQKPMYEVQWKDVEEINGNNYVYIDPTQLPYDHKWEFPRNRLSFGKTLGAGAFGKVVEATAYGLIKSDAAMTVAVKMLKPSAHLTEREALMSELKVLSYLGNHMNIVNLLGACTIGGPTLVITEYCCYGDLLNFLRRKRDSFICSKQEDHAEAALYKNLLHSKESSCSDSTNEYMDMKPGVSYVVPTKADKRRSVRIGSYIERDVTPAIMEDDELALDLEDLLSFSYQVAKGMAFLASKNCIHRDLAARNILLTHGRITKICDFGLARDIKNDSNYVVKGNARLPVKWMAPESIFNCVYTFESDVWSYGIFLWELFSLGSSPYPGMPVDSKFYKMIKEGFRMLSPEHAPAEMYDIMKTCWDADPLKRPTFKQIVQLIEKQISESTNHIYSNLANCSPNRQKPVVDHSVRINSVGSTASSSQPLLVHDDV
Chain of kinases (KINOMEscan panel) (Homo sapiens, UniProt P08581, Y1235D) (P08581 25-1390 Y1235D): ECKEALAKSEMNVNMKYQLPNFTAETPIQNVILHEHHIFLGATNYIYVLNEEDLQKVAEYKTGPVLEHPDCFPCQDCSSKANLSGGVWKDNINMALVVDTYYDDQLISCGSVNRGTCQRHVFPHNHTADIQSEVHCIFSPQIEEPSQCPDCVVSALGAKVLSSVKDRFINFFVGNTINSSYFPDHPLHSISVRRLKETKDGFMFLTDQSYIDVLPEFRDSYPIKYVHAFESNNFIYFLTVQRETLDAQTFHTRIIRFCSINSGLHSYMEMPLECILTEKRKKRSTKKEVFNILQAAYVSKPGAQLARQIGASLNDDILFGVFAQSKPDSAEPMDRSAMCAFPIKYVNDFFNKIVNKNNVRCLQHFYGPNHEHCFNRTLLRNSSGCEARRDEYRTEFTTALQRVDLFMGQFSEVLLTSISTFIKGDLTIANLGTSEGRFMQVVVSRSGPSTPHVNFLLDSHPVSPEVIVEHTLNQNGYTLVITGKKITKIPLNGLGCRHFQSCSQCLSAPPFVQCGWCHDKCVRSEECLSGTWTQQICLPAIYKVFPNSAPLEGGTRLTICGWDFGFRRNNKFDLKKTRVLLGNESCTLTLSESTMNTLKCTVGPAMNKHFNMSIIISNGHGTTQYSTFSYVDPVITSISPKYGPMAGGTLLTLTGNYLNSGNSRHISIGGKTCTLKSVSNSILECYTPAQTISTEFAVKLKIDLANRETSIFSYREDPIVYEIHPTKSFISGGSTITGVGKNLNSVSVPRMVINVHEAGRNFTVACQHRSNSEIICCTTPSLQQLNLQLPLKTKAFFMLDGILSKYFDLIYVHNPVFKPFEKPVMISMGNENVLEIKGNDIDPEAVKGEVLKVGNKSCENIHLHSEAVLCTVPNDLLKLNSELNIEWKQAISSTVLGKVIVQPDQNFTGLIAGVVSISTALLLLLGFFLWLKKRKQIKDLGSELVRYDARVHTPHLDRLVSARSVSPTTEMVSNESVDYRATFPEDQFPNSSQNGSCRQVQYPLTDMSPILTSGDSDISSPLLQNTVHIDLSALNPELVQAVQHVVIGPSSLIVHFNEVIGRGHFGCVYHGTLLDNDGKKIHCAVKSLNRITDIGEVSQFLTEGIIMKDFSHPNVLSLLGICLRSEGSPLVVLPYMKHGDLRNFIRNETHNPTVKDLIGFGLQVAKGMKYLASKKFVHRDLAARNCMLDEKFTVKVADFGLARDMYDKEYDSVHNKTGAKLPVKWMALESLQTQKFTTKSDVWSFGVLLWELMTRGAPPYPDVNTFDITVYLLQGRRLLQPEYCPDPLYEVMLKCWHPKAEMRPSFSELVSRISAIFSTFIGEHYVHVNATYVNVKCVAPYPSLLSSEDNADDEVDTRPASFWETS
Chain of kinases (KINOMEscan panel) (Homo sapiens, UniProt P10721, V559D/V654A) (P10721 26-976 V559D/V654A): as the sequence (P10721 26-976 V559D) above, with V629A counted along it

Row | Compound | KINOMEscan MET(Y1235D) [1] | KINOMEscan KIT(V559D) [2] | KINOMEscan KIT(V559D,V654A) [3] | KINOMEscan INSRR [4] | KINOMEscan CSK [5] | KINOMEscan RIPK1 [6] | KINOMEscan BMPR2 [7] | KINOMEscan NEK7 [8]
1 | Cc1cccc(-c2nc(Nc3ccc4nn(C)cc4c3)c3ccccc3n2)n1 [NK167] | 7 | 15 | 15 | 0 | 6 | 2 | 0 | 0
2 | Cc1cccc(-c2nc(N(C)c3ccc4ncsc4c3)c3ccccc3n2)n1 [NK-161] | 1 | 7 | 4 | 0 | 0 | 0 | 18 | 0
